How the values were obtained:
HIF2α = target: T1, HIF2α (Homo sapiens, UniProt Q99814); assay: isothermal titration calorimetry (iTC200), purified PAS-B domain titrated into PT2567; type: binding
T1 construct: gene EPAS1; PAS-B domain (human HIF2α-B)

rat HIF2α = target: T2, rat HIF2α (Rattus norvegicus, UniProt Q9JHS1); assay: as above; type: binding
T2 construct: gene Epas1; PAS-B domain (rat HIF2α-B, made from the human HIF2α-B expression vector by mutating T262L, I265V and I326V)
T2 sequence (Q9JHS1 240-350 limits assumed): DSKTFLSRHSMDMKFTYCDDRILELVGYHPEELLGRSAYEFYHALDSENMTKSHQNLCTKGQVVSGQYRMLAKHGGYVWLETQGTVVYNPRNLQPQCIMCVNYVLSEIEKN

T1 sequence (Q99814 240-350 limits assumed): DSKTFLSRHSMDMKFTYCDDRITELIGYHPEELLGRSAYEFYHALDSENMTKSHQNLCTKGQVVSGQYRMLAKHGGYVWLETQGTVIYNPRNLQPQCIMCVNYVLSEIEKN

Q: Which results are given for PT2567?
A: Kd (HIF2α): 0.03 µM; Kd (rat HIF2α): 0.029 µM

Source: publication PMC7930471, “Targeting HIF2α-ARNT hetero-dimerisation as a novel therapeutic strategy for pulmonary arterial hypertension” (The European Respiratory Journal, 2021)
